# In patent publication US6545007B2, “Methods for inhibiting the transmission of HIV using topically applied substituted 6-benzyl-4-oxopyrimidines” (Idenix (Cayman) Limited, priority 2000, dated 2003):
# Tests used:
# HIV-1 (IIIB strain) = format: cell-based; conditions: for EC50: anti-HIV-1 activity, HIV-1-infected MT-4 cells; for SI: selectivity index (CC50/EC50)
# Method: Compounds. Compounds were solubilized in DMSO at 200 mM and then diluted into culture medium.
# (§1) Cells and viruses. MT-4, C8166,H9/IIIB and CEM cells were grown at 37° C. in a 5% CO2 atmosphere in RPMI 1640 medium, supplemented with 10% fetal calf serum (FCS), 100 IU/mL penicillin and 100 μg/mL streptomycin. Cell cultures were checked periodically for the absence of mycoplasma contamination with a MycoTect Kit (Gibco). Human immunodeficiency virus type-I (HIV-1, IIIB strain) was obtained from supernatants of persistently infected H9/IIIB cells.
# HIV Titration. Titration of HIV was performed in C8166 cells by the standard limiting dilution method (dilution 1:2, four replica wells per dilution) in 96-well plates. The infectious virus titre was determined by light microscope scoring of cytopathicity after 4 days of incubation and the virus titres were expressed as CCID50/mL.
# (§2) Anti-HIV Assays. Activity of the compounds against HIV-1 and HIV-2 multiplication in acutely infected cells was based on the inhibition of virus-induced cytopathicity in MT-4 and C8166 cells, respectively. Briefly, 50 μL of culture medium containing 1×10^4 cells were added to each well of flat-bottom microtiter trays containing 50 μl of culture medium with or without various concentrations of the test compounds. Then 20 μL of an HIV suspension containing 100 CCID50 were added. After a 4-day incubation at 37° C., the number of viable cells was determined by the 3-(4,5-dimethylthiazol-[…])-2,5-diphenyltetrazolium bromide (MTT) method. Cytotoxicity of the compounds was evaluated in parallel with their antiviral activity. It was based on the viability of mock-infected cells, as monitored by the MTT method.
# mock-infected MT-4 cells = test: Cytotoxicity: viability of mock-infected cells by the MTT method; format: cell-based, human
# Method: as §1, §2
SMILES,EC50 (HIV-1 (IIIB strain)) [nM],SI (HIV-1 (IIIB strain)),CC50 (mock-infected MT-4 cells) [µM]
CC(c1ccccc1)c1cc(=O)[nH]c(SC2CCCCC2)n1 (stereo not drawn) [MC 898],600,248,149
CCC(c1ccccc1)c1cc(=O)[nH]c(SC(C)C)n1 (stereo not drawn) [MC 899],800,250,200
CCC(c1ccccc1)c1cc(=O)[nH]c(SC2CCCC2)n1 (stereo not drawn) [MC 900],1000,>200,> 200
CCC(c1ccccc1)c1cc(=O)[nH]c(SC2CCCCC2)n1 (stereo not drawn) [MC 903],1300,>154,> 200
CCCCSc1nc(Cc2c(F)cccc2F)c(C)c(=O)[nH]1 [MC 905],80,">2,500",> 200
CCC(C)Sc1nc(Cc2ccccc2Cl)c(C)c(=O)[nH]1 (stereo not drawn) [MC 909],270,>741,> 200
CCC(C)Sc1nc(Cc2cccc(Cl)c2)c(C)c(=O)[nH]1 (stereo not drawn) [MC 910],960,>208,> 200
CCC(C)Sc1nc(Cc2ccc(Cl)cc2)c(C)c(=O)[nH]1 (stereo not drawn) [MC 911],9500,20,> 200
CSc1nc(Cc2c(Cl)cccc2Cl)c(C)c(=O)[nH]1 [MC 912],3200,>62,> 200
CCC(C)Sc1nc(Cc2ccccc2F)c(C)c(=O)[nH]1 (stereo not drawn) [MC 913],410,341,140
Cc1c(Cc2c(Cl)cccc2Cl)nc(SC(C)C)[nH]c1=O [MC 914],1300,>154,> 200
Cc1c(Cc2c(Cl)cccc2Cl)nc(SC2CCCC2)[nH]c1=O [MC 915],1800,>111,> 200
Cc1c(Cc2c(Cl)cccc2Cl)nc(SCC(C)C)[nH]c1=O [MC 916],1200,>166,> 200
Cc1c(Cc2c(Cl)cccc2Cl)nc(SC2CCCCC2)[nH]c1=O [MC 917],22000,>9,> 200
CCC(C)Sc1nc(Cc2ccc(F)cc2)c(C)c(=O)[nH]1 (stereo not drawn) [MC 919],11000,9.5,105
CCCCSc1nc(Cc2c(Cl)cccc2Cl)c(C)c(=O)[nH]1 [MC 920],1170,>171,> 200
Cc1c(Cc2c(F)cccc2F)nc(SCC(C)C)[nH]c1=O [MC 921],100,640,64
Cc1c(Cc2c(F)cccc2F)nc(SC2CCCC2)[nH]c1=O [MC 922],80,">2,500",> 200
Cc1c(Cc2c(F)cccc2F)nc(SC2CCCCC2)[nH]c1=O [MC 923],90,">2,222",> 200
CCC(C)Sc1nc(Cc2ccc([N+](=O)[O-])cc2)c(C)c(=O)[nH]1 (stereo not drawn) [MC 924],2000,>100,> 200
CCC(C)Sc1nc(Cc2cccc([N+](=O)[O-])c2)c(C)c(=O)[nH]1 (stereo not drawn) [MC 925],350,>571,> 200
CCC(C)Nc1nc(Cc2c(F)cccc2F)cc(=O)[nH]1 (stereo not drawn) [MC 945],130,">1,540",> 200
CCC(C)Sc1nc(Cc2ccccc2OC)cc(=O)[nH]1 (stereo not drawn) [MC 952],1960,>208,> 200
CCC(C)Sc1nc(Cc2cccc(OC)c2)cc(=O)[nH]1 (stereo not drawn) [MC 957],1200,>166,> 200

SMILES,EC50 (HIV-1 (IIIB strain)) [nM],SI (HIV-1 (IIIB strain)),CC50 (mock-infected MT-4 cells) [µM]
CCC(C)Sc1nc(Cc2ccc(C(F)(F)F)cc2)cc(=O)[nH]1 (stereo not drawn) [MC 959],25000,8,200
CCC(C)Sc1nc(Cc2ccc(N)cc2)cc(=O)[nH]1 (stereo not drawn) [MC 960],23000,>8,> 200
CCC(C)Sc1nc(Cc2ccc(OC)cc2)cc(=O)[nH]1 (stereo not drawn) [MC 964],14000,10.5,147
CCC(c1cc(=O)[nH]c(SC(C)C)n1)c1cccc2ccccc12 (stereo not drawn) [MC 969],1500,33.3,50
CC(C)Sc1nc(C(C)c2cccc3ccccc23)cc(=O)[nH]1 (stereo not drawn) [MC 971],1100,108,119
CC(c1cc(=O)[nH]c(SC2CCCC2)n1)c1cccc2ccccc12 (stereo not drawn) [MC 972],500,186,93
CCC(c1cc(=O)[nH]c(SC2CCCC2)n1)c1cccc2ccccc12 (stereo not drawn) [MC 973],3000,17,51
CC(c1cc(=O)[nH]c(SC2CCCCC2)n1)c1cccc2ccccc12 (stereo not drawn) [MC 974],140,321.4,45
CCC(c1cc(=O)[nH]c(SC2CCCCC2)n1)c1cccc2ccccc12 (stereo not drawn) [MC 975],180,94,16.9
CC(C)Nc1nc(Cc2c(F)cccc2F)cc(=O)[nH]1 [MC 979],380,>526,> 200
O=c1cc(Cc2c(F)cccc2F)nc(NC2CC2)[nH]1 [MC 980],3170,>63,> 200
CC(c1cc(=O)[nH]c(SC2CCCC2)n1)c1c(Cl)cccc1Cl (stereo not drawn) [MC 996],1000,78.3,78.3
CCC(c1cc(=O)[nH]c(SC(C)C)n1)c1c(Cl)cccc1Cl (stereo not drawn) [MC 1000],400,>500,> 200
CC(C)Sc1nc(C(C)c2c(Cl)cccc2Cl)cc(=O)[nH]1 (stereo not drawn) [MC 1001],1200,97.5,117
CCC(c1cc(=O)[nH]c(SC2CCCC2)n1)c1c(Cl)cccc1Cl (stereo not drawn) [MC 1002],1000,23.4,23.4
CCC(c1cc(=O)[nH]c(SC2CCCCC2)n1)c1c(Cl)cccc1Cl (stereo not drawn) [MC 1003],3600,>55.5,> 200
CCC(c1cc(=O)[nH]c(SC(C)C)n1)c1c(F)cccc1F (stereo not drawn) [MC 1005],80,875,70
CCC(c1cc(=O)[nH]c(SC2CCCC2)n1)c1c(F)cccc1F (stereo not drawn) [MC 1006],150,"1,333",200
CC(C)Sc1nc(C(C)c2c(F)cccc2F)cc(=O)[nH]1 (stereo not drawn) [MC 1007],50,"3,340",167
CC(c1cc(=O)[nH]c(SC2CCCC2)n1)c1c(F)cccc1F (stereo not drawn) [MC 1008],30,">6,666",> 200
CC(c1cc(=O)[nH]c(SC2CCCCC2)n1)c1c(F)cccc1F (stereo not drawn) [MC 1013],160,">1,250",> 200
CCC(c1cc(=O)[nH]c(SC2CCCCC2)n1)c1c(F)cccc1F (stereo not drawn) [MC 1014],50,"2,600",130
CC(c1cc(=O)[nH]c(SC2CCCCC2)n1)c1c(Cl)cccc1Cl (stereo not drawn) [MC 1016],2900,>69,> 200
